According to patent publication EP4610269A1, “UROKINASE PLASMINOGEN ACTIVATOR SURFACE RECEPTOR (UPAR) LIGANDS FOR DIAGNOSTIC OR THERAPEUTIC USE” (3B Pharmaceuticals GmbH, priority 2024, dated 2025):
Read-outs that look alike come from different tables or passages of the source. Where a SMILES comes first, the peptide text is derived from it. Bridges are numbered along the chain shown (N, C = ends). [ ]: non-standard residue; d: D form. The star is where a group is joined. DOTA = O=C(O)CN1CCN(CC(=O)O)CCN(CC(=O)*)CCN(CC(=O)O)CC1; NOTA = O=C(O)CN1CCN(CC(=O)O)CCN(CC(=O)*)CC1; Phe(4-Cl) = N[C@@H](Cc1ccc(Cl)cc1)C(=O)O; Pro(cis-4-F) = O=C(O)[C@@H]1C[C@H](F)CN1; Pro(4R-NH2) = N[C@H]1CN[C@H](C(=O)O)C1; Dopa = N[C@@H](Cc1ccc(O)c(O)c1)C(=O)O; Hyp = O=C(O)[C@@H]1C[C@@H](O)CN1; NMeF = CN[C@@H](Cc1ccccc1)C(=O)O; hPhe = N[C@@H](CCc1ccccc1)C(=O)O; Pentanoyl(4-Me) = CC(C)CCC(=O)*; Tic = O=C(O)[C@@H]1Cc2ccccc2CN1; Cit = NC(=O)NCCC[C@H](N)C(=O)O; Butoxycarbonyl = CCCCOC(=O)*; dNle = CCCC[C@@H](N)C(=O)O; hSer = N[C@@H](CCO)C(=O)O; Nva = CCC[C@H](N)C(=O)O; Pentanoyl = CCCCC(=O)*

Assays:
human uPAR (uPAR-Fc) = biological target: T1, human uPAR (uPAR-Fc) (Homo sapiens, UniProt Q03405); test: Surface plasmon resonance (SPR) assay, single cycle kinetics; assay type: binding; details: pKD category for uPAR SPR activity assay, uPAR-Fc on Protein A-Chip, 25°C, read-out: pKD CAT (converted)
T1 construct: comprising amino acids Leu23-Arg303 according to UniProt entry Q03405.1; purchased R&D Systems 10378-UK-100
T1 sequence (Q03405 23-303): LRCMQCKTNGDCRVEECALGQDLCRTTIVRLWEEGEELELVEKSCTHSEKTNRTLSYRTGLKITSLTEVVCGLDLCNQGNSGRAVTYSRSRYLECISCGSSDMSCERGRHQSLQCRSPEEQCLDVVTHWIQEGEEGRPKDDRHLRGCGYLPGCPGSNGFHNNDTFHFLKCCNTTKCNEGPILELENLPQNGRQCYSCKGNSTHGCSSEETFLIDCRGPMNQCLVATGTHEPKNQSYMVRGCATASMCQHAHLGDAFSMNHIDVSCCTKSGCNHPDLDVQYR
How it was run: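 uPAR-Fc (Leu23-Arg303 extracellular domains, human IgG1 Fc) captured on Protein A chip to ~2000 RU; single-cycle kinetics at 25°C in HEPES running buffer pH 7.4 with 0.1% DMSO. KD from double-referenced sensorgrams fitted to 1:1 Langmuir model, reported as pKD.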

[1] = biological target: T2, uPAR-expressing HEC-265 human endometrial adenocarcinoma cells (Homo sapiens, UniProt Q03405); test: Competitive FACS binding assay; details: pIC50 category of FACS binding
T2 construct: Cell surface uPAR-expressing HEC-265 human endometrial adenocarcinoma cells; host or cells: HEC-265
T2 sequence (Q03405 23-335): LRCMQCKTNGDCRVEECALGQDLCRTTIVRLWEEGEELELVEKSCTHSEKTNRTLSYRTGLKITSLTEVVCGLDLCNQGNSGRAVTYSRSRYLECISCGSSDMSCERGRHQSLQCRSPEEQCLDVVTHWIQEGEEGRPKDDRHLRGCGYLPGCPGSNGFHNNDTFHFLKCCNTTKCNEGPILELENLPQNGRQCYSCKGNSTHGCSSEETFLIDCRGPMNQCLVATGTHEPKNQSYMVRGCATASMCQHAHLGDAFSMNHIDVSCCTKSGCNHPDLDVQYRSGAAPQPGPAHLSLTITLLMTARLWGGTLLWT
How it was run: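 Competitive displacement of a 10 nM biotinylated peptide from HEC-265 cells (1 h, 4 °C, PBS/1% BSA), detected via APC-streptavidin by flow cytometry. pIC50 from four-parameter logistic fit of median fluorescence versus concentration.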

| SMILES | Kd (human uPAR (uPAR-Fc)) | IC50 [1] | Kd (human uPAR (uPAR-Fc); single cycle kinetics) |
| --- | --- | --- | --- |
| CCCCOC(=O)N[C@H]1CSSC[C@@H](C(N)=O)NC(=O)[C@H](CCC)NC(=O)[C@H]([C@@H](C)CC)NC(=O)[C@@H]2C[C@@H](O)CN2C(=O)[C@@H]2C[C@H](F)CN2C(=O)[C@H](Cc2ccccc2)NC(=O)[C@H](Cc2ccc(O)c(O)c2)NC(=O)[C@H](CCCCNC(=O)CN2CCN(CC(=O)O)CCN(CC(=O)O)CC2)NC(=O)[C@H]([C@@H](C)O)NC1=O [UPAR-250, Butoc-[Cys-Thr-Lys(NOTA)-Dopa-Phe-4Cfp-Hyp-Ile-Nva-Cys]-NH2] (Butoxycarbonyl-CTK(NOTA)[Dopa]F[Pro(cis-4-F)][Hyp]I[Nva]C-NH2; disulfide 1-10) | < 1.58 nM | ≤ 10 nM |  |
| CCCCC(=O)N[C@H]1CSSC[C@@H](C(N)=O)NC(=O)[C@H](CCC)NC(=O)[C@H]([C@@H](C)CC)NC(=O)[C@@H]2C[C@@H](O)CN2C(=O)[C@@H]2CCCN2C(=O)[C@@H]2Cc3ccccc3CN2C(=O)[C@H](Cc2ccc(O)cc2)NC(=O)[C@H](CCCCNC(=O)CN2CCN(CC(=O)O)CCN(CC(=O)O)CCN(CC(=O)O)CC2)NC(=O)[C@H](CCCNC(N)=O)NC1=O [UPAR-252, Pent-[Cys-Cit-Lys(DOTA)-Tyr-Tic-Pro-Hyp-Ile-Nva-Cys]-NH2] (Pentanoyl-C[Cit]K(DOTA)Y[Tic]P[Hyp]I[Nva]C-NH2; disulfide 1-10) | > 100 nM | ≥ 126 nM |  |
| CCCCC(=O)N[C@H]1CSSC[C@@H](C(N)=O)NC(=O)[C@H](CCC)NC(=O)[C@H]([C@@H](C)CC)NC(=O)[C@@H]2C[C@@H](O)CN2C(=O)[C@@H]2CCCN2C(=O)[C@H](Cc2ccccc2)N(C)C(=O)[C@H](Cc2ccc(O)cc2)NC(=O)[C@H](CCCCNC(=O)CN2CCN(CC(=O)O)CCN(CC(=O)O)CCN(CC(=O)O)CC2)NC(=O)[C@H](CCCNC(N)=O)NC1=O [UPAR-398, Pent-[Cys-Cit-Lys(DOTA)-Tyr-Nmf-Pro-Hyp-Ile-Nva-Cys]-NH2] (Pentanoyl-C[Cit]K(DOTA)Y[NMeF]P[Hyp]I[Nva]C-NH2; disulfide 1-10) |  | ≥ 126 nM | > 100 nM |
| CCCCC(=O)N[C@H]1CSSC[C@@H](C(N)=O)NC(=O)[C@H](CCC)NC(=O)[C@H](Cc2ccc(Cl)cc2)NC(=O)[C@@H]2C[C@@H](O)CN2C(=O)[C@@H]2CCCN2C(=O)[C@H](Cc2ccccc2)NC(=O)[C@H](Cc2ccc(O)cc2)NC(=O)[C@H](CCC(N)=O)NC(=O)[C@H](CCCNC(=N)N)NC1=O [UPAR-204, Pent-[Cys-Arg-Gln-Tyr-Phe-Pro-Hyp-Pcf-Nva-Cys]-NH2] (Pentanoyl-CRQYFP[Hyp][Phe(4-Cl)][Nva]C-NH2; disulfide 1-10) | < 1.58 nM | ≤ 10 nM |  |
| CCCCC(=O)N[C@H]1CSSC[C@@H](C(N)=O)NC(=O)[C@H](COC)NC(=O)[C@H]([C@@H](C)CC)NC(=O)[C@@H]2C[C@@H](O)CN2C(=O)[C@@H]2CCCN2C(=O)[C@H](Cc2ccccc2)NC(=O)[C@H](Cc2ccc(O)cc2)NC(=O)[C@H](CCCCNC(=O)CN2CCN(CC(=O)O)CCN(CC(=O)O)CCN(CC(=O)O)CC2)NC(=O)[C@H](CCCNC(N)=O)NC1=O [UPAR-380, Pent-[Cys-Cit-Lys(DOTA)-Tyr-Phe-Pro-Hyp-Ile-Ser(Me)-Cys]-NH2] (Pentanoyl-C[Cit]K(DOTA)YFP[Hyp]IS(Me)C-NH2; disulfide 1-10) |  | ≤ 10 nM | 1.58 to 10 nM |
| CC[C@H](C)[C@@H]1NC(=O)[C@@H](C)NC(=O)[C@@H]2CCCN2C(=O)[C@H](Cc2ccccc2)NC(=O)[C@H](Cc2ccc(O)cc2)NC(=O)[C@H](C)NC(=O)[C@H](CCCNC(N)=O)NC(=O)[C@@H](NC(=O)CCC(C)C)CSSC[C@@H](C(N)=O)NC(=O)[C@H](CC(C)C)NC1=O [UPAR-339, iHex-[Cys-Cit-Ala-Tyr-Phe-Pro-ala-Ile-Leu-Cys]-NH2] ({Pentanoyl(4-Me)}-C[Cit]AYFP[dA]ILC-NH2; disulfide 1-10) | 1.58 to 10 nM | ≤ 10 nM |  |
| CCCCC(=O)N[C@H]1CSSC[C@@H](C(N)=O)NC(=O)[C@H](CCC)NC(=O)[C@H]([C@@H](C)CC)NC(=O)[C@@H]2C[C@@H](O)CN2C(=O)[C@@H]2CCCN2C(=O)[C@H](Cc2ccccc2)NC(=O)[C@H](Cc2ccc(O)cc2)NC(=O)[C@H](CCCCN)NC(=O)[C@H](CCCNC(=N)N)NC1=O [UPAR-448, Pent-[Cys-Arg-Lys-Tyr-Phe-Pro-Hyp-Ile-Nva-Cys]-NHz] (Pentanoyl-CRKYFP[Hyp]I[Nva]C-NH2; disulfide 1-10) |  | ≤ 10 nM | < 1.58 nM |
| CCCCC(=O)N[C@H]1CSSC[C@@H](C(N)=O)NC(=O)[C@H](CCC)NC(=O)[C@H]([C@@H](C)CC)NC(=O)[C@@H]2C[C@@H](N)CN2C(=O)[C@@H]2CCCN2C(=O)[C@H](Cc2ccccc2)NC(=O)[C@H](Cc2ccc(O)cc2)NC(=O)[C@H](CCCCNC(=O)CN2CCN(CC(=O)O)CCN(CC(=O)O)CCN(CC(=O)O)CC2)NC(=O)[C@H](CCCNC(N)=O)NC1=O [UPAR-377, Pent-[Cys-Cit-Lys(DOTA)-Tyr-Phe-Pro-Tap-Ile-Nva-Cys]-NH2] (Pentanoyl-C[Cit]K(DOTA)YFP[Pro(4R-NH2)]I[Nva]C-NH2; disulfide 1-10) |  | ≤ 10 nM | < 1.58 nM |
| CCCCC(=O)N[C@H]1CSSC[C@@H](C(N)=O)NC(=O)[C@H](CCC)NC(=O)[C@H]([C@@H](C)CC)NC(=O)[C@@H]2C[C@@H](O)CN2C(=O)[C@@H]2CCCN2C(=O)[C@H](Cc2ccccc2)NC(=O)[C@H](Cc2c[nH]cn2)NC(=O)[C@H](CCCCNC(=O)CN2CCN(CC(=O)O)CCN(CC(=O)O)CCN(CC(=O)O)CC2)NC(=O)[C@H](CCCNC(N)=O)NC1=O [UPAR-324, Pent-[Cys-Cit-Lys(DOTA)-His-Phe-Pro-Hyp-Ile-Nva-Cys]-NH2] (Pentanoyl-C[Cit]K(DOTA)HFP[Hyp]I[Nva]C-NH2; disulfide 1-10) | < 1.58 nM | ≤ 10 nM |  |
| CCCC[C@H]1NC(=O)[C@H](CCCNC(=N)N)NC(=O)[C@@H](NC(=O)[C@H](CC(C)C)NC(=O)[C@H](CC(=O)O)NC(C)=O)CSSC[C@@H](C(N)=O)NC(=O)[C@H](CC(C)C)NC(=O)[C@H]([C@@H](C)CC)NC(=O)[C@H](C)NC(=O)[C@@H]2CCCN2C(=O)[C@H](Cc2ccccc2)NC(=O)[C@H](Cc2ccc(O)cc2)NC1=O [UPAR-274, Ac-Asp-Leu-[Cys-Arg-nle-Tyr-Phe-Pro-Ala-Ile-Leu-Cys]-NH2] (Ac-DLCR[dNle]YFPAILC-NH2; disulfide 3-12) | 1.58 to 10 nM | 12.6 to 31.6 nM |  |
| CCCCC(=O)N[C@H]1CSSC[C@@H](C(N)=O)NC(=O)[C@H](CCC)NC(=O)[C@H]([C@@H](C)CC)NC(=O)[C@@H]2C[C@@H](O)CN2C(=O)[C@H](CC(C)C)NC(=O)[C@H](Cc2ccccc2)NC(=O)[C@H](Cc2ccc(O)cc2)NC(=O)[C@H](CCC(N)=O)NC(=O)[C@H](CCCNC(=N)N)NC1=O [UPAR-433, Pent-[Cys-Arg-Gln-Tyr-Phe-Leu-Hyp-Ile-Nva-Cys]-NH2] (Pentanoyl-CRQYFL[Hyp]I[Nva]C-NH2; disulfide 1-10) |  | ≤ 10 nM | < 1.58 nM |
| CCCCC(=O)N[C@H]1CSSC[C@@H](C(N)=O)NC(=O)[C@H](CCC)NC(=O)[C@H]([C@@H](C)CC)NC(=O)[C@@H]2C[C@@H](O)CN2C(=O)[C@@H]2CCCN2C(=O)[C@H](Cc2ccccc2)NC(=O)[C@H](CCc2ccccc2)NC(=O)[C@H](CCC(N)=O)NC(=O)[C@H](CCCNC(=N)N)NC1=O [UPAR-366, Pent-[Cys-Arg-Gln-Hfe-Phe-Pro-Hyp-Ile-Nva-Cys]-NH2] (Pentanoyl-CRQ[hPhe]FP[Hyp]I[Nva]C-NH2; disulfide 1-10) |  | 12.6 to 31.6 nM | 10 to 100 nM |
| CCCCC(=O)N[C@H]1CSSC[C@@H](C(N)=O)NC(=O)[C@H](CCC)NC(=O)[C@H]([C@@H](C)CC)NC(=O)[C@@H]2C[C@@H](O)CN2C(=O)[C@@H]2CCCN2C(=O)[C@H](Cc2ccccc2)NC(=O)[C@H](Cc2ccc(O)cc2)NC(=O)[C@H](CCCCNC(=O)CN2CCN(CC(=O)O)CCN(CC(=O)O)CCN(CC(=O)O)CC2)NC(=O)[C@H](CC(N)=O)NC1=O [UPAR-283, Pent-[Cys-Asn-Lys(DOTA)-Tyr-Phe-Pro-Hyp-Ile-Nva-Cys]-NH2] (Pentanoyl-CNK(DOTA)YFP[Hyp]I[Nva]C-NH2; disulfide 1-10) | < 1.58 nM | ≤ 10 nM |  |
| CCCCC(=O)N[C@H]1CSSC[C@@H](C(=O)NCC)NC(=O)[C@H](CCC)NC(=O)[C@H]([C@@H](C)CC)NC(=O)[C@@H]2C[C@@H](O)CN2C(=O)[C@@H]2CCCN2C(=O)[C@H](Cc2ccccc2)NC(=O)[C@H](Cc2ccc(O)cc2)NC(=O)[C@H](CCC(N)=O)NC(=O)[C@H](CCCNC(N)=O)NC1=O [UPAR-146, Pent-[Cys-Cit-Gln-Tyr-Phe-Pro-Hyp-Ile-Nva-Cys]-NHEt] (Pentanoyl-C[Cit]QYFP[Hyp]I[Nva]C-NHEt; disulfide 1-10) | 1.58 to 10 nM | 12.6 to 31.6 nM |  |
| CCCCOC(=O)N[C@H]1CSSC[C@@H](C(N)=O)NC(=O)[C@H](CCO)NC(=O)[C@H]([C@@H](C)CC)NC(=O)[C@@H]2C[C@@H](O)CN2C(=O)[C@@H]2C[C@H](F)CN2C(=O)[C@H](Cc2ccccc2)NC(=O)[C@H](Cc2ccc(O)cc2)NC(=O)[C@H](CCCCNC(=O)CN2CCN(CC(=O)O)CCN(CC(=O)O)CCN(CC(=O)O)CC2)NC(=O)[C@H]([C@@H](C)O)NC1=O [UPAR-368, Butoc-[Cys-Thr-Lys(DOTA)-Tyr-Phe-4Cfp-Hyp-Ile-Hse-Cys]-NH2] (Butoxycarbonyl-CTK(DOTA)YF[Pro(cis-4-F)][Hyp]I[hSer]C-NH2; disulfide 1-10) |  | ≤ 10 nM | 10 to 100 nM |
